Experiments:
Format in all cases: biochemical
[1] = target: T1, NUAK1 (Homo sapiens, UniProt O60285); test: Kinase profiling NUAK1; conditions: 100 micromolar inhibitor concentration, 100 is no change; for remaining activity at 100 µM: read-out: residual kinase activity, NUAK1
T1 sequence (O60285 1-661): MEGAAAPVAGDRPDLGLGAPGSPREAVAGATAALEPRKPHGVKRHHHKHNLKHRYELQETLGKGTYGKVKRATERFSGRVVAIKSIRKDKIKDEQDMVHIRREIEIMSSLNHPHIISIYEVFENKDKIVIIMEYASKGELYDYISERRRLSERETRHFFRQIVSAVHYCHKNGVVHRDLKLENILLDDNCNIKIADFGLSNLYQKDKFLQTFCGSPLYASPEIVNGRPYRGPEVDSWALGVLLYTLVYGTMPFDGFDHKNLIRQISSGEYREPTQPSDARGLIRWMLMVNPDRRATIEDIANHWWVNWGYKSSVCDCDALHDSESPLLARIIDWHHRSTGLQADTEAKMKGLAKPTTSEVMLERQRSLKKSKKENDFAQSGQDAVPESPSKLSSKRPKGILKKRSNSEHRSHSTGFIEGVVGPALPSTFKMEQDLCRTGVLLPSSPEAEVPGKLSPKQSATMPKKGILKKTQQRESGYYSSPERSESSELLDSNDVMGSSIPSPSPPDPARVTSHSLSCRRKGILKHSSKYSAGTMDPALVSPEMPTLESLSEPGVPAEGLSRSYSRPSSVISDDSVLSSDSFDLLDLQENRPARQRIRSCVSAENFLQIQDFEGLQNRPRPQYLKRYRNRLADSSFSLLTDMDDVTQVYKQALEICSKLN
Excerpt: (§1) Any value less that 25 is considered to be highly significant inhibition.

[2] = target: MINK1 (Homo sapiens, UniProt Q8N4C8); test: Kinase profiling MINK1; conditions: 100 micromolar inhibitor concentration, 100 is no change; for remaining activity at 100 µM: read-out: residual kinase activity, MINK1
Excerpt: as §1

[3] = target: T2, EPH-B4 (Homo sapiens, UniProt P54760); test: Kinase profiling EPH-B4; conditions: 100 micromolar inhibitor concentration, 100 is no change; for remaining activity at 100 µM: read-out: residual kinase activity, EPH-B4
T2 sequence (P54760 16-987): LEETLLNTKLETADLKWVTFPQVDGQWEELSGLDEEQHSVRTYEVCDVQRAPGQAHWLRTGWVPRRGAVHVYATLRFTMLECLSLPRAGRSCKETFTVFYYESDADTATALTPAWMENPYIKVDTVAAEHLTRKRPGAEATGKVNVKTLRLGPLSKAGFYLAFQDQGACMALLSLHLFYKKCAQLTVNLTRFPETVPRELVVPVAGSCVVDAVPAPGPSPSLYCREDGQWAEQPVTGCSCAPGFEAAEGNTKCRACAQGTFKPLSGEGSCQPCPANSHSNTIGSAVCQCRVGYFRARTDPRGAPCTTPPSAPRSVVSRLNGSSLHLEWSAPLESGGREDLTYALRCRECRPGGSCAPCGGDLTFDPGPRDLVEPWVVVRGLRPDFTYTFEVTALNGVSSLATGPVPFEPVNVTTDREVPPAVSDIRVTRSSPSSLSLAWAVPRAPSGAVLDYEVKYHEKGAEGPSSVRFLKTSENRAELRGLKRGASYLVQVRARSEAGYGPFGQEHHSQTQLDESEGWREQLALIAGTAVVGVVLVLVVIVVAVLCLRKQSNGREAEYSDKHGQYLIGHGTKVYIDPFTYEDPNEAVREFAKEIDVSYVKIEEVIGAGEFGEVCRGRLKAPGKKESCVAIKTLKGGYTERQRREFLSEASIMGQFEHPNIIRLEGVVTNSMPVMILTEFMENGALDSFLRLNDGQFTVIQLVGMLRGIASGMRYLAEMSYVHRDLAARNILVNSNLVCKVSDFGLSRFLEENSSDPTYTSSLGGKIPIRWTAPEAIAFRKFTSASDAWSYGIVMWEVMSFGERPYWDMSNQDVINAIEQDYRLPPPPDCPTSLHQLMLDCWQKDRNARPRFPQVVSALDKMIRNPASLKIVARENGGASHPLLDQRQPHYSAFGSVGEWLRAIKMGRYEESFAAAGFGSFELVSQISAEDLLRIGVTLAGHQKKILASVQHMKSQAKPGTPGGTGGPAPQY
Excerpt: as §1

[4] = target: TTBK1 (Homo sapiens, UniProt Q5TCY1); test: Kinase profiling TTBK1; conditions: 100 micromolar inhibitor concentration, 100 is no change; for remaining activity at 100 µM: read-out: residual kinase activity, TTBK1
Excerpt: as §1

[5] = target: ERK5 (Homo sapiens, UniProt Q13164); test: Kinase profiling ERK5; conditions: 100 micromolar inhibitor concentration, 100 is no change; for remaining activity at 100 µM: read-out: residual kinase activity, ERK5
Excerpt: as §1

[6] = target: PDGFRA (Homo sapiens, UniProt P16234); test: Kinase profiling PDGFRA; conditions: 100 micromolar inhibitor concentration, 100 is no change; for remaining activity at 100 µM: read-out: residual kinase activity, PDGFRA
Excerpt: as §1

[7] = target: OSR1 (Homo sapiens, UniProt O95747); test: Kinase profiling OSR1; conditions: 100 micromolar inhibitor concentration, 100 is no change; for remaining activity at 100 µM: read-out: residual kinase activity, OSR1
Excerpt: as §1

[8] = target: MAP4K5 (Homo sapiens, UniProt Q9Y4K4); test: Kinase profiling MAP4K5; conditions: 100 micromolar inhibitor concentration, 100 is no change; for remaining activity at 100 µM: read-out: residual kinase activity, MAP4K5
Excerpt: as §1

[9] = target: YES1 (Homo sapiens, UniProt P07947); test: Kinase profiling YES1; conditions: 100 micromolar inhibitor concentration, 100 is no change; for remaining activity at 100 µM: read-out: residual kinase activity, YES1
Excerpt: as §1

[10] = target: T3, Aurora A (Homo sapiens, UniProt O14965); test: Kinase profiling Aurora A; conditions: 100 micromolar inhibitor concentration, 100 is no change; for remaining activity at 100 µM: read-out: residual kinase activity, Aurora A
T3 sequence (O14965 1-403): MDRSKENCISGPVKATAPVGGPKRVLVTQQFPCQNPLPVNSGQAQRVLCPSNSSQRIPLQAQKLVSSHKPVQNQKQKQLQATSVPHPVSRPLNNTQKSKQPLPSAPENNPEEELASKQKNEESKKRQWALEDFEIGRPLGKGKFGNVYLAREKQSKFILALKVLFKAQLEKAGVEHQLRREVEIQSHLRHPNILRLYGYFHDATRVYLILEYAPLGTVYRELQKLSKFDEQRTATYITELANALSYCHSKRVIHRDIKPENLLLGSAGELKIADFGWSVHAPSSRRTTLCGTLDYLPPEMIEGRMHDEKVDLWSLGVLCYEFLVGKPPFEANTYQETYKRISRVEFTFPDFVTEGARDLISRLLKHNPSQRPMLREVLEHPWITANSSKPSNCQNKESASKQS
Excerpt: as §1

YES1, sequence (P07947 whole entry, species assumed): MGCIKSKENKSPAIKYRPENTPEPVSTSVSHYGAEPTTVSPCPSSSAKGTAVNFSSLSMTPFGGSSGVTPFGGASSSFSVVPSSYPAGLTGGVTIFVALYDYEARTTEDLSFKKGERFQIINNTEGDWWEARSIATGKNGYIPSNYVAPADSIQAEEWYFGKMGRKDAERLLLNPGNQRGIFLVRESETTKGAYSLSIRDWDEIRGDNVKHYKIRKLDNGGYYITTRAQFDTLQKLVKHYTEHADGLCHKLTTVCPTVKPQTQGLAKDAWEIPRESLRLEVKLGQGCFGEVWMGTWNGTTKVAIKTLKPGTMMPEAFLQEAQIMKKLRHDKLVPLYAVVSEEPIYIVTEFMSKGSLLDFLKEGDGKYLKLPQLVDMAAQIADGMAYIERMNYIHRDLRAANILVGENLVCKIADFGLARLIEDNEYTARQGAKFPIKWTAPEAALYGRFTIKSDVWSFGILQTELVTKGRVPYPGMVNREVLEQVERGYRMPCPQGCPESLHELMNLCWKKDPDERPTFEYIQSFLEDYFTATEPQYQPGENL
MAP4K5, sequence (Q9Y4K4 whole entry, species assumed): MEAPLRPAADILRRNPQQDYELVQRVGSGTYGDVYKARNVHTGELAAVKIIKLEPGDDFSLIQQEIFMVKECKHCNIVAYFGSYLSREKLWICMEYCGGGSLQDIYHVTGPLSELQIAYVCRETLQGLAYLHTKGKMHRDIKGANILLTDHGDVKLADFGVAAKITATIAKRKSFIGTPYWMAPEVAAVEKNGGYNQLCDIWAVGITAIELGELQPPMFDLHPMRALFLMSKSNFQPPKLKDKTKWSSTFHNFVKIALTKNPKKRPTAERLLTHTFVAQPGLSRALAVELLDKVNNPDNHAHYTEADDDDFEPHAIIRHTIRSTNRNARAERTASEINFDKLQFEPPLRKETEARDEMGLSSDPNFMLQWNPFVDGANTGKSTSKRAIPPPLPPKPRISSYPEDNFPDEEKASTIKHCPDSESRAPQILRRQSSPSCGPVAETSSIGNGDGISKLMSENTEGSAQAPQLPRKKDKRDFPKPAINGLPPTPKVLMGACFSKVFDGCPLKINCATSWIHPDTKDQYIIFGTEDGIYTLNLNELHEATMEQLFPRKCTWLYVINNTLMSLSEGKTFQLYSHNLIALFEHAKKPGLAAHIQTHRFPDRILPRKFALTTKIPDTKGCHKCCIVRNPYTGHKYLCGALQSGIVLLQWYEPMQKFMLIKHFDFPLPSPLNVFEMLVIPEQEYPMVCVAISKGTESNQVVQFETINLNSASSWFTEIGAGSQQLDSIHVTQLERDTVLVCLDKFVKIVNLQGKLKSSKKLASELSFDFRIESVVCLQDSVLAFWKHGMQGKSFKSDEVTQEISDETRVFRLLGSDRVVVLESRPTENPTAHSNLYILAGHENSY
OSR1, sequence (O95747 whole entry): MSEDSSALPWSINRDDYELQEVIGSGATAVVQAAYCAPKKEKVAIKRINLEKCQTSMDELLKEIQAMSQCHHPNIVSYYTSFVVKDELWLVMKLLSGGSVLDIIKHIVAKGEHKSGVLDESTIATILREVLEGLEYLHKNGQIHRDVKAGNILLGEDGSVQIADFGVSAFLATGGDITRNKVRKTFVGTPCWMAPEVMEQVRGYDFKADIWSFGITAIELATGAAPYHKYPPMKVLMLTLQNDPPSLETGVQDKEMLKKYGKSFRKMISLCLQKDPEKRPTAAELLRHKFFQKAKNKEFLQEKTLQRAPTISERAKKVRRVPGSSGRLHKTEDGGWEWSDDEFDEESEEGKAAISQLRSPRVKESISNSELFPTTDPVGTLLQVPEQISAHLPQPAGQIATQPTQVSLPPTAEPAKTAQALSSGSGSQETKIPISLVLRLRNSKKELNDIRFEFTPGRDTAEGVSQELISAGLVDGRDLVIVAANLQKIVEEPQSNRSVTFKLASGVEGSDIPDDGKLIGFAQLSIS
MINK1, sequence (Q8N4C8 whole entry, species assumed): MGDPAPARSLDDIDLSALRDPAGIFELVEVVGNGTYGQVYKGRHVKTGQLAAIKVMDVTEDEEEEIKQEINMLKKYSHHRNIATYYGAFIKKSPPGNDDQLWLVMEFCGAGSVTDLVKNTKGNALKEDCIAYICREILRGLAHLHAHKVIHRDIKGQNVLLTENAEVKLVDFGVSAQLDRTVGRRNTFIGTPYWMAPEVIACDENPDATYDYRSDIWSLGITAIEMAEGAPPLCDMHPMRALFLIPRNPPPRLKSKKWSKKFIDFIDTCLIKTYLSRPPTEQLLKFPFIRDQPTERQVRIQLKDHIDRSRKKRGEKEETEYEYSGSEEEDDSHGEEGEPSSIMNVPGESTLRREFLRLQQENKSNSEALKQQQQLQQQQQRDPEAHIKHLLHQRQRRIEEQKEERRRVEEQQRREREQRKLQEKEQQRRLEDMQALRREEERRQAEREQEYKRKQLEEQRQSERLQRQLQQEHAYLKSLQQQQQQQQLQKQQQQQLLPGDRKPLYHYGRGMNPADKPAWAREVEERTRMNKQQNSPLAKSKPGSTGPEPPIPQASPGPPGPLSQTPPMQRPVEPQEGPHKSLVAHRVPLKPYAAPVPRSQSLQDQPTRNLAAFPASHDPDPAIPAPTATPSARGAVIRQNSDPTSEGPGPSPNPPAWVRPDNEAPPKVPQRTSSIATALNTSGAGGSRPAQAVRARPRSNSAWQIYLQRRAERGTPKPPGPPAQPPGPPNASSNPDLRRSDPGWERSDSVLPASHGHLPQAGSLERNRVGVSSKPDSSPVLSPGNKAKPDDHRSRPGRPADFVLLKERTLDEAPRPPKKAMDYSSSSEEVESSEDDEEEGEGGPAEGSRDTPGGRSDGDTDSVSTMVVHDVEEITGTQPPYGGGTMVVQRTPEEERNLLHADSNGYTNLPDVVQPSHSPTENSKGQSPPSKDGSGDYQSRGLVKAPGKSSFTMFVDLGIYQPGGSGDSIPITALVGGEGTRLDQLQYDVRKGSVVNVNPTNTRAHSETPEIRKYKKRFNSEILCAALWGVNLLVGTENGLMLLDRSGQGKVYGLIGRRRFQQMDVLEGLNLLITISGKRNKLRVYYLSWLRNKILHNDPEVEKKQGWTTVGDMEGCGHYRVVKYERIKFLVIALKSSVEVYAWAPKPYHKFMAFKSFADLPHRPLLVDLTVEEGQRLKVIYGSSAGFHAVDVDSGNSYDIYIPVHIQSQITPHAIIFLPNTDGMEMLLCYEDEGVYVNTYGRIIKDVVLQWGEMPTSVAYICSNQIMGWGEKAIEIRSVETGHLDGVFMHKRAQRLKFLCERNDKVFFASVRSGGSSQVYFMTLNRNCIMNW
ERK5, sequence (Q13164 whole entry, species assumed): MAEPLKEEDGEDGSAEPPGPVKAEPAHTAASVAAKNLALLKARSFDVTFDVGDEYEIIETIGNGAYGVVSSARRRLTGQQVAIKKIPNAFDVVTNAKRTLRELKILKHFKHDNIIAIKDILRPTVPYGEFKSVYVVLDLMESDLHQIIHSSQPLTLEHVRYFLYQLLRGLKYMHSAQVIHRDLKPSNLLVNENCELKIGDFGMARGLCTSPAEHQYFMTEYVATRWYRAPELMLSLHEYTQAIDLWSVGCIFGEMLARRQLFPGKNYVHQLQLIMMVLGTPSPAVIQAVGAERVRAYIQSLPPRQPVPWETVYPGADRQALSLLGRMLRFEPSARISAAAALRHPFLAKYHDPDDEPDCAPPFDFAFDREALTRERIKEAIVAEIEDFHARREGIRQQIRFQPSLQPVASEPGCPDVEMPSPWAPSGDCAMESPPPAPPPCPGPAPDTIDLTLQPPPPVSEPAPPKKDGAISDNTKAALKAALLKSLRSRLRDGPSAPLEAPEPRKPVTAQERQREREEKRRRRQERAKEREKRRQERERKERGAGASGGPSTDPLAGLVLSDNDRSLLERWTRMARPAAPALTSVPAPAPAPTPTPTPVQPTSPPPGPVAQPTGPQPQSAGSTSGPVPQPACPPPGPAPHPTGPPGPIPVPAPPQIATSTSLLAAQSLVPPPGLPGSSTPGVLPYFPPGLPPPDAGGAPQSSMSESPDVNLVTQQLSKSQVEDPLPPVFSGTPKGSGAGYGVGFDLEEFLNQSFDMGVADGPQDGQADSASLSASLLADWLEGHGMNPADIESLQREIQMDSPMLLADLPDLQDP

SMILES: CC(=O)Nc1nc2ccccc2s1 [Compound 03-32]
- residual kinase activity, NUAK1 [1]: 74
- residual kinase activity, MINK1 [2]: 92
- residual kinase activity, EPH-B4 [3]: 99
- residual kinase activity, TTBK1 [4]: 80
- residual kinase activity, ERK5 [5]: 66
- residual kinase activity, PDGFRA [6]: 78
- residual kinase activity, OSR1 [7]: 112
- residual kinase activity, MAP4K5 [8]: 95
- residual kinase activity, YES1 [9]: 93
- residual kinase activity, Aurora A [10]: 109

SMILES: O=C(Nc1nc2cc(O)ccc2s1)c1cccnc1 [Compound 03-33]
- residual kinase activity, NUAK1 [1]: 68
- residual kinase activity, MINK1 [2]: 51
- residual kinase activity, EPH-B4 [3]: 106
- residual kinase activity, TTBK1 [4]: 89
- residual kinase activity, ERK5 [5]: 58
- residual kinase activity, PDGFRA [6]: 61
- residual kinase activity, OSR1 [7]: 109
- residual kinase activity, MAP4K5 [8]: 58
- residual kinase activity, YES1 [9]: 91
- residual kinase activity, Aurora A [10]: 108

SMILES: O=C(Nc1nc2ccc(O)cc2s1)c1ccccc1 [Compound 03-60]
- residual kinase activity, NUAK1 [1]: 14
- residual kinase activity, MINK1 [2]: 7
- residual kinase activity, EPH-B4 [3]: 110
- residual kinase activity, TTBK1 [4]: 46
- residual kinase activity, ERK5 [5]: 30
- residual kinase activity, PDGFRA [6]: 29
- residual kinase activity, OSR1 [7]: 82
- residual kinase activity, MAP4K5 [8]: 31
- residual kinase activity, YES1 [9]: 65
- residual kinase activity, Aurora A [10]: 82

SMILES: CC(=O)Nc1nc2cc(C(F)(F)F)ccc2s1 [Compound 03-73]
- remaining activity at 100 µM [1]: 74%
- remaining activity at 100 µM [2]: 77%
- remaining activity at 100 µM [3]: 101%
- remaining activity at 100 µM [4]: 94%
- remaining activity at 100 µM [5]: 67%
- remaining activity at 100 µM [6]: 34%
- remaining activity at 100 µM [7]: 113%
- remaining activity at 100 µM [8]: 73%
- remaining activity at 100 µM [9]: 108%
- remaining activity at 100 µM [10]: 96%

SMILES: CC(=O)Nc1nc2cc(C)ccc2s1 [Compound 03-76]
- residual kinase activity, NUAK1 [1]: 58
- residual kinase activity, MINK1 [2]: 63
- residual kinase activity, EPH-B4 [3]: 109
- residual kinase activity, TTBK1 [4]: 84
- residual kinase activity, ERK5 [5]: 62
- residual kinase activity, PDGFRA [6]: 59
- residual kinase activity, OSR1 [7]: 116
- residual kinase activity, MAP4K5 [8]: 83
- residual kinase activity, YES1 [9]: 104
- residual kinase activity, Aurora A [10]: 109

SMILES: CC(=O)Nc1nc2cc(F)ccc2s1 [Compound 03-77]
- remaining activity at 100 µM [1]: 66%
- remaining activity at 100 µM [2]: 65%
- remaining activity at 100 µM [3]: 112%
- remaining activity at 100 µM [4]: 80%
- remaining activity at 100 µM [5]: 38%
- remaining activity at 100 µM [6]: 59%
- remaining activity at 100 µM [7]: 109%
- remaining activity at 100 µM [8]: 65%
- remaining activity at 100 µM [9]: 85%
- remaining activity at 100 µM [10]: 100%

SMILES: O=C(Nc1nc2ccc(O)cc2s1)c1ccncc1 [Compound 08-42]
- residual kinase activity, NUAK1 [1]: 57
- residual kinase activity, MINK1 [2]: 37
- residual kinase activity, EPH-B4 [3]: 92
- residual kinase activity, TTBK1 [4]: 70
- residual kinase activity, ERK5 [5]: 41
- residual kinase activity, PDGFRA [6]: 40
- residual kinase activity, OSR1 [7]: 72
- residual kinase activity, MAP4K5 [8]: 67
- residual kinase activity, YES1 [9]: 79
- residual kinase activity, Aurora A [10]: 103

SMILES: O=C(Nc1nc2ccc(O)cc2s1)c1cccnc1 [Compound 08-44]
- residual kinase activity, NUAK1 [1]: 39
- residual kinase activity, MINK1 [2]: 19
- residual kinase activity, EPH-B4 [3]: 100
- residual kinase activity, TTBK1 [4]: 47
- residual kinase activity, ERK5 [5]: 43
- residual kinase activity, PDGFRA [6]: 44
- residual kinase activity, OSR1 [7]: 51
- residual kinase activity, MAP4K5 [8]: 81
- residual kinase activity, YES1 [9]: 74
- residual kinase activity, Aurora A [10]: 99

Reference: patent US10231954B2, “Neurodegenerative therapies” (LYTIX BIOPHARMA AS, priority 2014, dated 2019)
